This is an account of results in patent US20240390407A1, “PROMOTER FOR DIFFERENTIATION INTO CARTILAGE CELL, CARTILAGE CELL PROPAGATION PROMOTER, AND CARTILAGE MATRIX PRODUCTION PROMOTER” (HOKURIKU UNIVERSITY, priority 2021, published 2024).

What all share (format): cell-based
Data set [1] has as its system chondrogenic progenitor ATDC5 cells. The data set is described as follows: Detection of glycosaminoglycan by Alcian blue staining (absorbance at 620 nm). Conditions: day 24 of culture. On the procedure:
(§1) Using chondrogenic progenitor ATDC5 cells, the effects of liquiritin on the differentiation of chondrogenic progenitor cells into chondrocytes, proliferation of chondrocytes, and production of cartilaginous matrix were investigated as follows.
(§2) ATDC5 cells (obtained from RIKEN BioResource Research Center) were seeded at 1×10^4 cells/well in a microplate containing 0.5 mL of Dulbecco's modified Eagle medium (DMEM)/Ham's F-12 medium (manufactured by FUJIFILM Wako Pure Chemical Corporation), and cultured at 37° C. in the presence of 5% by volume carbon dioxide. […]
On day 24 of culture, the cells were fixed with 95% by volume ethanol, and then stained with Alcian blue staining solution (prepared with 1% Alcian blue and 3% acetic acid aqueous solution, pH=2.5), and glycosaminoglycan was detected.
Then, the Alcian blue dye of the stained cultured cells was solubilized with 6M guanidine hydrochloride, and the absorbance at 620 nm was measured using a plate reader (Infinite 200 PRO, manufactured by Tecan Japan Co., Ltd., for each liquiritin concentration and control, n=4). The measurement results are shown in FIG. 1 as meantstandard deviation based on relative values when the absorbance in the control is 100. […]

Data set [2] has the same test system. Kind of data set: Quantification of intracellular sulfated glycosaminoglycan (dimethylmethylene blue, absorbance at 525 nm). As to the method: as §1, §2
Each sample (20 μL) was blended with 200 μL of a 16 mg/L dimethylmethylene blue solution (prepared with an aqueous solution (pH=3.0) containing 40 mM glycine, 27 mM sodium chloride, and 10 mM acetic acid), and the absorbance at 525 nm was measured and sulfated glycosaminoglycan in the sample was quantified (n=4 for each). The quantification results are shown in FIG. 2 as meantstandard deviation. As regards the quantification results, an unpaired t-test was performed between each group added with liquiritin at the above-mentioned concentration and the control.

For data set [3] the test system is unchanged. The data set is described as follows: Content of DNA in cell digestive fluid as index of cell number. The settings on record: day 24 of culture; at 10 μM and 20 μM significant at P<0.01 vs control (FIG. 3). As to the method:
as §1
ATDC5 cells (obtained from RIKEN BioResource Research Center) were seeded at 1×10^4 cells/well in a microplate containing 0.5 mL of Dulbecco's modified Eagle medium (DMEM)/Ham's F-12 medium (manufactured by FUJIFILM Wako Pure Chemical Corporation), and cultured at 37° C. in the presence of 5% by volume carbon dioxide.
On days 3, 6, 9, 12, 15, 18 and 21 of culture, transferrin and sodium selenite, which are differentiation-inducing reagents, were each added to the aforementioned medium at final concentrations of 10 μg/mL and 30 nM, respectively, and further, the medium was replaced with a medium to which liquiritin was added at each final concentration of 5 μM, 10 μM, or 20 μM, and the culture was continued.
The case of same treatment without adding liquiritin (liquiritin concentration=0 μM) was used as a control. […]
The content of DNA in the above-mentioned sample was measured using a DNA quantification kit (“DNA Assay Kit”, manufactured by Cosmo Bio Company, Limited) (n=4 for each) and used as an index of cell number. […]

For data set [4] the test system is unchanged. The data set is described as follows: Measurement of number of cells under microscope. As to the method:
Using chondrogenic progenitor ATDC5 cells, the effects of liquiritin on the differentiation of chondrogenic progenitor cells into chondrocytes, proliferation of chondrocytes, and production of cartilaginous matrix were investigated as follows. ATDC5 cells (obtained from RIKEN BioResource Research Center) were seeded at 1×10^4 cells/well in a microplate containing 0.5 mL of Dulbecco's modified Eagle medium (DMEM)/Ham's F-12 medium (manufactured by FUJIFILM Wako Pure Chemical Corporation), and cultured at 37° C. in the presence of 5% by volume carbon dioxide. […] In addition, on day 24 of culture, the cells were washed with 10 mM phosphate buffered saline (pH=7.4), the cells were detached using 0.25 (w/v) % trypsin-1 mM tetrasodium ethylenediaminetetraacetate solution (manufactured by FUJIFILM Wako Pure Chemical Corporation), the number of cells in the cell suspension was observed under an inverted culture microscope (CK40, manufactured by Olympus Corporation) (magnification=10x), and the number of cells was measured (n=4 for each). […]

SMILES strings stand for the structures.

For the molecule `O=C1C[C@@H](c2ccc(O[C@@H]3O[C@H](CO)[C@@H](O)[C@H](O)[C@H]3O)cc2)Oc2cc(O)ccc21` [liquiritin, (2S)-2,3-dihydro-7-hydroxy-2-[4-(β-D-glucopyranosyloxy)phenyl]-4H-1-benzopyran-4-one], the “absorbance at 620 nm of solubilized Alcian blue dye compared to the control” value in data set [1] (20 μM liquiritin, P<0.05 (FIG. 1)) is on record as “significant increase”. In addition, the “glycosaminoglycan stained with Alcian blue in cultured cells” value in data set [1] (not less than 10 μM liquiritin, vs control (FIG. 1)) was “increased”. For the same molecule, in data set [2] (5 μM to 20 μM liquiritin, day 24 of culture, P<0.01 vs control (FIG. 2)), the “amount of sulfated glycosaminoglycan contained in cell digestive fluid” value is on record as “significant increase”. Besides, the “concentration promoting production of glycosaminoglycan by chondrocytes (as low as)” value in data set [2] (ATDC5 cells, conclusion from results) worked out at 5 µM. Also, in data set [3], the “content of DNA in the cell digestive fluid (index of cell number)” value is recorded as “increased with the addition concentration”. Also, in data set [4] (at 10 μM and 20 μM significant at P<0.05 vs control (FIG. 4)), the “cell number on day 24 of culture” value is recorded as “increased with the addition concentration”. Further, in data set [4] (concentration range 10 μM to 20 μM, ATDC5 cells), the cytotoxicity entry is on record as “does not exhibit cytotoxicity”.
